The values below come from publication PMC12040169 (PLOS Biology, 2025).

A short description of the data set: in vitro. The note with it: human, hela cells, % viability.

With `Cc1cc2n(n1)[C@@H](C(F)F)C[C@@H](C1CCN(C(=O)C(C)C)CC1)N2` [CBK284725], the viability at 28.5 h, 10 µM was found to be 88%.

`NNc1nccc(Nc2ccccc2C(=O)O)n1` [CBK263145]: the viability at 28.5 h, 10 µM was determined as 95.9%. In the case of `COc1cccc([C@H]2CN(C(=O)c3ccccc3)[C@@H]3CCN(Cc4cccs4)C[C@H]23)c1` [CBK285609], the viability at 28.5 h, 10 µM came out at 102%. The same measure, in the same setting: with `CC(C)CCc1c(O)nc(SCCN2CCOCC2)n(-c2ccccc2)c1=O` [CBK263363C] the figure was 85.5%; with `CN(C)S(=O)(=O)NC1CC(C)(C)Cc2c1cnn2-c1ccc(F)cc1` (stereo not drawn) [CBK306646], 112%. On the same count and under the same terms, with `CCOC(=O)c1[nH]c2ccccc2c1NC(=O)c1ccc(Cl)cc1Br` [CBK160140] the figure was 96.7%; with `CC(C)Oc1ncccc1OCc1ccccc1` [CBK001457], 124%; with `O=[N+]([O-])c1c(N(CCO)CCO)cc(Cl)c2nonc12` [CBK261446], 92.5%. On to `O=C1COc2ccccc2C/C=C/C[C@H]2CNCC[C@H]2N1` [CBK292033], for which the viability at 28.5 h, 10 µM came out at 101%.

Regarding `COc1ccc(CCN(Cc2ccc(Cl)c(Cl)c2)C(=O)NCc2ccc(C#N)cc2)cc1OC` [CBK158771], the viability at 28.5 h, 10 µM was determined as 100%. On the same count and under the same terms, next, `CN1CCC2(CC1)SC(=O)Nc1ccc(Br)cc12` [CBK017821B]: 100%; `COC(=O)c1ccc(NC(=O)CNc2ccccc2)cc1` [CBK268064]: 110%. Take `O=C(CSc1nc2ccccc2[nH]1)Nc1ccc(OC(F)(F)F)cc1` [CBK269711]: the viability at 28.5 h, 10 µM was determined as 104%. Consider `CN(C)CCCN(Cc1ccco1)Cc1cccn1-c1ccccn1` [CBK283180], for which the viability at 28.5 h, 10 µM was 99.8%. On to `COCCN(Cc1cnn(C)c1)C(=O)Cc1ccc(Cl)cc1` [CBK307407], for which the viability at 28.5 h, 10 µM came to 97%. Still for that read-out and setting: with `O=C1N/C(=N/c2cccc(O)c2)S/C1=C1\C(=O)Nc2ccccc21` [CBK265549] the figure was 99.6%; with `c1ccc(NCCOc2nccnc2N2CCCC2)cc1` [CBK115814], 87.9%.

Turning to `CN(C)Cc1cc(C[C@@H]2C[C@H](NC(=O)c3ccnc(Cl)c3)C2(C)C)no1` [CBK289311], the viability at 28.5 h, 10 µM came to 89.6%. The same measure, in the same setting: next, `N#CCCN(CCN1CCCC1)S(=O)(=O)c1cccc2nsnc12` [CBK261141]: 99.3%; `CC(C)n1c(=O)n(CC(=O)N2CCCCC2)c2cccnc21` [CBK283526]: 90.6%. The same measure, in the same setting: next, `COC1CCC(C(=O)N2CCC(COc3ccc(-c4ccc(S(C)(=O)=O)cc4)cn3)CC2)CC1` (stereo not drawn) [CBK161995]: 80.3%.

For the molecule `O=C(CSc1nnc(-c2cccc(F)c2)o1)c1ccccc1` [CBK068764], the viability at 28.5 h, 10 µM was determined as 105%. For `COc1cccc(Oc2cnc(-c3cccc(C(F)(F)F)c3)c(N)n2)c1` [CBK145177], the viability at 28.5 h, 10 µM amounted to 94.2%. Still for that read-out and setting: with `CN1CCN(c2cccc(-c3ccsc3)n2)CC1` [CBK036916] the figure was 90.2%; with `CCOc1ccc(C(CC(=O)O)C(=O)O)cc1` (stereo not drawn) [CBK261363], 96.7%; with `CCOCC1CCN(C(=O)c2ncsc2Nc2ccccc2)C1` (stereo not drawn) [CBK304204], 117%.

On to `CCOC(=O)C1CCN(Cc2cccs2)CC1` [CBK026999], for which the viability at 28.5 h, 10 µM stood at 86.3%. The same measure, in the same setting: next, `O=c1[nH]c(=O)c2cc(S(=O)(=O)N3CCCC(CN4CCCC4)C3)ccc2[nH]1` (stereo not drawn) [CBK286392]: 88.8%. On the same count and under the same terms, with `COc1ccc([C@H](O)[C@@H]2CCCN(C(=O)OC(C)(C)C)C2)cc1` [CBK284311] the figure was 83.4%; with `CC(=O)c1cc(C(=O)Nc2ccc(NC(=O)C(=O)O)cc2)oc1C` [CBK264011], 95.4%. Turning to `CCOC(=O)C1(c2ccccc2)CCN(C(=O)c2cccc3[nH]ccc23)CC1` [CBK132193], the viability at 28.5 h, 10 µM (bulk resorufin, single well) amounted to 95.7%.

Consider `O=C(CCCn1ccnc1)N1CCc2[nH]c3ccccc3c2C1` [CBK281872], for which the viability at 28.5 h, 10 µM stood at 101%. As to `Cc1cccc2c3c([nH]c12)C1(CCCN(C/C=C\c2ccccc2)C1)N(C=O)CC3` (stereo not drawn) [CBK040265], the viability at 28.5 h, 10 µM was found to be 92.4%.

For `CC(=O)Nc1ccc(CNC(=O)c2ccc(C(F)(F)F)cn2)cc1` [CBK252121], the viability at 28.5 h, 10 µM amounted to 92%. The same measure, in the same setting: next, `CC(=O)c1cn(CCC(=O)NC2CCCOC2)c2ccccc12` (stereo not drawn) [CBK282515]: 114%; `CCN1CCOC(CNc2nc(-c3ccncc3)nc3c2CCC3)C1` (stereo not drawn) [CBK306215]: 88.4%.

For `Cn1ccnc1CN1CCC2(CC1)CC(C(=O)O)N(C(=O)C1CC1)C2` (stereo not drawn) [CBK306986], the viability at 28.5 h, 10 µM was 88.2%. Still for that read-out and setting: with `Fc1ccc(-c2cc(Nc3ccccc3)ncn2)cc1F` [CBK090913] the figure was 105%; with `O=C(O)c1ccc(Cl)c2c1C1C=CCC1C(c1ccc(S(=O)(=O)N3CCOCC3)cc1)N2` (stereo not drawn) [CBK268401], 108%; with `O=C(Nc1ccc(NC(=O)c2ccco2)cc1)c1ccc(N2CCOCC2)c([N+](=O)[O-])c1` [CBK268739], 95.2%.

As to `CC(C)c1ccc(S(=O)(=O)n2ccn(-c3cccc(C(F)(F)F)c3)c2=O)cc1` [CBK106587], the viability at 28.5 h, 10 µM stood at 93.8%. On to `O=C1CC(c2ccccc2)CC(NCc2ccccc2)=C1C(=S)Nc1ccccc1` (stereo not drawn) [CBK264491], for which the viability at 28.5 h, 10 µM was 104%. The same measure, in the same setting: with `CCCOc1ccc(O)cc1` [CBK122802] the figure was 97.8%; with `CC(C)(C)NCC(O)COc1ccc(Cl)cc1Cl` (stereo not drawn) [CBK025597C], 101%. On the same count and under the same terms, next, `COc1cc(-c2nc(NC(=O)C(C)C)cc3ccccc23)cc(OC)c1OC` [CBK085741]: 106%. The same measure, in the same setting: next, `O=C(c1cc(C(F)(F)F)cc(C(F)(F)F)c1)N1CCC(O)(c2ccc(Cl)cc2)CC1` [CBK061972]: 96.9%; `O=C(C1CN(S(=O)(=O)c2ccccc2)CCN1S(=O)(=O)c1ccccc1)N1CCCCC1` (stereo not drawn) [CBK262686]: 86.4%; `O=C(CSc1nnc2c(n1)[nH]c1ccccc12)Nc1ccccc1[N+](=O)[O-]` [CBK263195]: 100%. On to `COc1ccc(/C=N/Nc2nc(OC)nc(N3CCOCC3)n2)cc1` [CBK025751], for which the viability at 28.5 h, 10 µM turned out to be 91.6%. Still for that read-out and setting: next, `CN1CCCN(Cc2cccc3ccccc23)CC1` [CBK261531]: 96.4%; `Cc1ccn(CCNC(=O)Cn2c3c(c4ccccc42)CCC3)n1` [CBK282708]: 86.5%.

`C=CCc1cc(/C=C2\C(=O)NC(=O)N(c3ccc4c(c3)OCO4)C2=O)cc(OC)c1OCC(=O)O` [CBK264025]: the viability at 28.5 h, 10 µM (bulk resorufin, single well) worked out at 98.5%.

In the case of `CCOC(=O)c1ccc(N2C(=O)CC(N3CCN(c4ncccn4)CC3)C2=O)cc1` (stereo not drawn) [CBK263306], the viability at 28.5 h, 10 µM amounted to 105%.

Take `COc1cccc(-c2cncc(C3CCN(C(=O)CCOc4ccccc4)CC3)n2)c1` [CBK286153]: the viability at 28.5 h, 10 µM came to 88.9%. On the same count and under the same terms, with `CCCS(=O)(=O)Nc1cccc(-c2nnn[nH]2)c1` [CBK155417] the figure was 104%. On the same count and under the same terms, next, `O=c1ccc2ccc(-c3cccc(C(F)(F)F)c3)nc2[nH]1` [CBK073717]: 83.7%; `COC(=O)c1ccc(N2CCN(Cc3nc(C)no3)C(C)C2)cc1` (stereo not drawn) [CBK305998]: 92.3%. Still for that read-out and setting: next, `CC(=O)N1CCc2cc(C(=O)N[C@@H](Cc3ccccc3)C(=O)O)ccc21` [CBK298303]: 102%.

`Cc1nnsc1C(=O)N1CCN(c2cc(C(F)(F)F)ccn2)CC1` [CBK008467]: the viability at 28.5 h, 10 µM stood at 86.4%. The same measure, in the same setting: with `COc1cc(C(=O)N2CCC3(CC2)CC(=O)c2cc(-c4cccc(C)c4)ccc2O3)cc(OC)c1C` [CBK170341] the figure was 87.7%. In the case of `CC1CCN(C(C)Cn2cncc2-c2cnn(C)c2)CC1` (stereo not drawn) [CBK281703], the viability at 28.5 h, 10 µM turned out to be 95.5%.

Turning to `Cc1ccc(-c2n[nH]c(=S)n2CC(=O)N2CCC(C(=O)Nc3ccc4c(c3)OCO4)CC2)cc1` [CBK297887], the viability at 28.5 h, 10 µM amounted to 82%. Same read-out and setting: next, `CN(C)C(CNS(=O)(=O)c1ccc2[nH]c(=O)[nH]c(=O)c2c1)c1ccccc1Cl` (stereo not drawn) [CBK286385]: 86.7%; `COc1ccc(C(=O)N2CCC3(CCN(Cc4ccc(OC(F)(F)F)cc4)C3)C2)cc1OC` (stereo not drawn) [CBK132148]: 89%.

Take `Cc1cc2c([nH]c3ccccc32)c(C)n1` [CBK262689]: the viability at 28.5 h, 10 µM was determined as 104%. Same read-out and setting: next, `CC(Sc1nc(-c2ccccc2)nc2ccccc12)C(=O)Nc1ccccc1C(F)(F)F` (stereo not drawn) [CBK265795]: 103%; `Cc1ccc(C2(CN3CCN(Cc4cnc(C)n4C)CC3)CC2)cc1` [CBK282469]: 93.5%. Consider `O=C(O)c1ccccc1-c1ccccc1C(=O)NCCCO` [CBK267197], for which the viability at 28.5 h, 10 µM is 92.3%. The same measure, in the same setting: with `Cc1ccc(C(=O)O)cc1NC(=O)C(C)Oc1cccc(Cl)c1` (stereo not drawn) [CBK268331] the figure was 95.7%; with `Cc1nc(-c2ccccc2)sc1CNC(=O)/C=C\C(=O)Nc1ccc(F)cc1` [CBK092357], 96.2%; with `COC(=O)[C@H]1CN(C(=O)c2cccnc2)C[C@@H]1c1ccc(F)cc1` [CBK283788], 92.1%.

For the molecule `O=C(O)CCc1ccc(-c2cccs2)n1-c1ccc(Cl)c(Cl)c1` [CBK264797], the viability at 28.5 h, 10 µM stood at 88.7%. The same measure, in the same setting: next, `Cc1cc(Cl)ccc1CNC(=O)C1(c2ccccc2)CCCC1` [CBK149519]: 88.6%; `Nc1ncc(-c2cccc(C(=O)O)c2)nc1N1CCOCC1` [CBK063415]: 101%. On the same count and under the same terms, with `O=C(Nc1cccc(O)c1)c1ccc2c(c1)C(=O)N(c1cccc(N3C(=O)c4ccc(C(=O)Nc5cccc(O)c5)cc4C3=O)n1)C2=O` [CBK261199] the figure was 89.8%; with `CC(=O)[C@H]1C[C@@H](CC(=O)Nc2ccc(Cl)nc2)C1(C)C` [CBK091338], 97.7%. Same read-out and setting: with `O=C(c1nc2ncccn2n1)N1CCc2ccccc2C1` [CBK288079] the figure was 88%; with `O=C(CCc1ccc(F)cc1)N1CCC(c2cccc(Cc3ccccc3)n2)CC1` [CBK286511], 114%.
